According to patent US20140243422A1, “METHODS OF TREATING BEHAVIORAL AND PSYCHIATRIC DISORDERS” (ELAN PHARMACEUTICALS, INC., priority 2011, published 2014):

How the values were obtained:
[1] = test system: patients with mild to moderate AD (MMSE 16-26); test: Phase 2 trial: safety and tolerability; format: in vivo, human; conditions: 250 mg bid, elderly study population
Description: (§1) The present study was a dose ranging study in Mild and Moderate AD patients (defined as having MMSE scores of 16-26 inclusive), and included 3 doses of scyllo-insoitol given bid (250 mg, 1000 mg, and 2000 mg) and placebo. The study was of 78 weeks duration and enrolled a total of 353 patients, and 351 received study drug (safety population). Due to safety findings in the 2 highest dose groups, these 2 groups were discontinued and the study's final efficacy analysis was based only on the 250 mg and placebo groups. The primary efficacy analysis was based on the overall population (mild and moderate), but the statistical analysis plan (SAP) Included subgroup analyses by disease severity, and defined Mild as patients with MMSE 23-26 and Moderate 16-22 inclusive. In the overall study population, total randomized to all 4 dose groups=353, total that received study drug=351 (safety population, at any dose). For placebo and 250 mg group, the overall m-ITT (modified intent-to-treat)=166, overall PPS (per protocol set)=96.
In summary, scyllo-inositol exposures ≧1000 mg bid provide less cognitive and functional benefit than the 250 mg bid dose. These high exposures may be associated with an increase in neuropsychiatric adverse events.

[2] = test system: myo-inositol brain levels; test: Phase 2 trial: brain myo-inositol and scyllo-inositol levels by magnetic resonance spectroscopy (MRS); format: in vivo, human
Description: (§2) In a Phase 2, parallel arm, dose-ranging, placebo-controlled, double-blind, multicenter trial in patients with mild to moderate AD (MMSE 16-26), scyllo-inositol was administered to study subjects in immediate release tablets twice daily at the dosage level set for each study arm or identical-appearing placebo tablets were administered in the control arm. […] The study included neuropsychological assessments using the NPI-12 item scale, as well as assessments of scyllo-Inositol (SI) and myo-inositol (MI) brain levels using magnetic resonance spectroscopy (MRS).
The maximal myo-inositol reduction measured at the 3 studied doses was 44%, 66% and 60% at the 250 mg, 1000 mg, and 2000 mg bid doses, respectively.

[3] = test system: patients with mild to moderate AD (MMSE 16-26); test: Phase 2 placebo-controlled trial: cognitive and functional outcome measures (NTB, ADCS-ADL, CDR-SB); format: in vivo, human
Description: as §2
Study drug was administered as placebo or one of 3 doses of scyllo-inositol (SI): 250 mg, 1000 mg and 2000 mg, each dose given twice daily (bid) as capsules of either 250 mg or 1000 mg.
as §1
Values for all clinical outcome measures were calculated so that a positive change from baseline indicates improvement, and a positive difference from placebo indicates drug benefit.
A sensitivity analysis was performed post-hoc using a wider definition of the Mild sub-group (MMSE: 22-26 inclusive) with a larger sample size. In this sensitivity analysis, the positive effect of the 250 mg on the NTB score approached a significant trend (p<0.1) in the m-ITT analysis (Table 3), and was significant (p<0.05) in the PP analysis (data on file). […] On this basis, all further analyses shown here are defined in the Mild and Moderate subgroups as patients having MMSE scores between 22-26 (Mild) and 16-21 (Moderate) inclusive.

myo-inositol = conditions: transgenic mice, Choi et al. 2010; cited from earlier work
amyloid β-peptide = conditions: given orally, transgenic mouse model of AD; cited from earlier work
CSF Abeta42 = test: Phase 2 trial: cerebrospinal fluid Abeta42; format: in vivo, human; conditions: 250 mg bid; statistically significant
Description: The effect of the 250 mg dose on cerebrospinal fluid (CSF) Abeta42 reduction (˜27% compared to baseline) was statistically significant, but the higher doses seemed to provide further Abeta42 reduction. Despite the dose-dependent effects of scyllo-inositol on CSF Abeta42, the 2 high doses consistently produced smaller effects on clinical endpoints than the 250 mg dose. This observed dissociation between the dose-dependent effects on CSF Abeta42 and the clinically measured NPI outcomes supports the concept that scyllo Inositol clinical effects are mediated by two distinct mechanisms. These mechanisms include: 1. reduction of brain amyloid load and resulting synaptic toxicity which has previously been disclosed affect memory and reasoning/problem solving, but not NPS, and 2. down-regulation of brain myo-inositol levels with secondary salutary effects on neuronal function (Machado-Vieira et al. 2009). The only other MRS studies measuring in vivo brain levels of myo-inositol and scyllo-inositol after scyllo-inositol administration were in transgenic mice. (Choi, et al. 2010, Neuropharmacology, 59(4-5): 353-357). […] The details of the Phase 2 data are described below.

[4] = 250 mg bid, Mild MMSE 22-26 (post-hoc), m-ITT
[5] = 250 mg bid, Mild MMSE 22-26, m-ITT
[6] = 250 mg bid, Mild MMSE 23-26, PPS
[7] = 250 mg bid, Mild MMSE 23-26, m-ITT
[8] = 250 mg bid, Mild MMSE 23-26, m-ITT, week 78, positive = drug benefit

O[C@H]1[C@H](O)[C@@H](O)[C@H](O)[C@@H](O)[C@@H]1O [scyllo-inositol]
safety and CNS tolerability [1]: acceptable safety and good CNS tolerability | maximal myo-inositol reduction in brain (MRS) ([2]; 250 mg bid, maximal at about 48 to about 78 weeks): 44% | maximal myo-inositol reduction in brain (MRS) ([2]; 1000 mg bid): 66% | maximal decrease of myo-inositol levels ([2]; 1000 mg bid and 2000 mg bid): 60-66% | maximal myo-inositol reduction in brain (MRS) ([2]; 2000 mg bid): 60% | brain scyllo-inositol level by MRS ([2]; 250, 1000, 2000 mg bid): dose-dependent increase | ADCS-DL drug-placebo difference [3, 4]: 3.15 | CDR-SB drug-placebo difference [3, 4]: 0.97 | NTB drug-placebo difference [3, 4]: 0.2 | ADCS-DL % effect compared to placebo [3, 5]: 42% | CDR-SB % effect compared to placebo [3, 5]: 42% | NTB % effect compared to placebo [3, 5]: 75% | ADCS-ADL % effect compared to placebo [3, 6]: 31% | ADCS-ADL drug-placebo difference [3, 6]: 2.25 | CDR-SB % effect compared to placebo [3, 6]: 44% | CDR-SB drug-placebo difference [3, 6]: 0.95 | NTB % effect compared to placebo [3, 6]: 100% | NTB drug-placebo difference [3, 6]: 0.4 | ADCS-ADL % effect compared to placebo [3, 7]: 35% | CDR-SB % effect compared to placebo [3, 7]: 40% | NTB % effect compared to placebo [3, 7]: 72% | ADCS-ADL drug-placebo difference [3, 8]: 2.26 | CDR-SB drug-placebo difference [3, 8]: 0.87 | NTB drug-placebo difference [3, 8]: 0.2 | magnitude of the 250 mg effect on the NTB ([3]; 250 mg bid, overall mild and moderate population, per protocol subjects, week 78, not statistically significant): 0.15 | NTB benefit compared to placebo ([3]; 250 mg bid, overall population, per protocol subjects, week 78): 40% | benefit on co-primary cognitive and functional endpoints (NTB and ADCS-ADL) ([3]; overall Mild and Moderate population): no statistically significant benefit | myo-inositol reductions in frontal cortex and hippocampus (MRS) (myo-inositol): rather modest non significant myo-inositol reductions | aggregation of amyloid β-peptide in the brain (amyloid β-peptide): inhibits aggregation of amyloid β-peptide in the brain | CSF Abeta42 reduction compared to baseline (CSF Abeta42): 27%
